Laboratory results from ChEMBL document CHEMBL2040764, “Bioactive briarane diterpenoids from the South China Sea gorgonian Dichotella gemmacea” (Bioorg Med Chem Lett, 2012).
Activity calls are given as the source filed them. No cut-off for these calls is given here.

How the values were obtained:
Escherichia coli [1] = experiment: Antibacterial activity against Escherichia coli at 0.05 mg by agar diffusion test; type: functional; details: read-out: DIZ
Priestia megaterium [2] = experiment: Antibacterial activity against Bacillus megaterium at 0.05 mg by agar diffusion test; type: functional; details: read-out: DIZ
Microbotryum violaceum [3] = experiment: Antifungal activity against Microbotryum violaceum at 0.05 mg by agar diffusion test; type: functional; details: read-out: DIZ
Zymoseptoria tritici = experiment: Antifungal activity against Septoria tritici at 0.05 mg by agar diffusion test; details: read-out: DIZ
A549 = experiment: Cytotoxicity against human A549 cells by MTT assay; type: functional, cell-based
MG-63 = experiment: Cytotoxicity against human MG63 cells by MTT assay; type: functional, cell-based
Escherichia coli [4] = experiment: Antibacterial activity against Escherichia coli at 2 mg/ml by agar diffusion test; type: functional; details: read-out: DIZ
Priestia megaterium [5] = experiment: Antibacterial activity against Bacillus megaterium at 2 mg/ml by agar diffusion test; type: functional, organism-based
Microbotryum violaceum [6] = experiment: Antifungal activity against Microbotryum violaceum at 2 mg/ml by agar diffusion test; type: functional; details: read-out: DIZ
[7] = system: Zymoseptoria tritici (Septoria tritici); experiment: Antifungal activity against Septoria tritici at 2 mg/ml by agar diffusion test; details: read-out: DIZ

Row | SMILES | zone of inhibition at 50 µg/disc (Escherichia coli [1]) | zone of inhibition at 50 µg/disc (Priestia megaterium [2]) | zone of inhibition at 50 µg/disc (Microbotryum violaceum [3]) | zone of inhibition at 50 µg/disc (Zymoseptoria tritici) | IC50 (A549) | IC50 (MG-63) | zone of inhibition at 2000 µg/mL (Escherichia coli [4]) | Activity (Priestia megaterium [5]) | zone of inhibition at 2000 µg/mL (Microbotryum violaceum [6]) | zone of inhibition at 2000 µg/mL [7]
1 | CC1(C)S[C@@H]2[C@H](NC(=O)Cc3ccccc3)C(=O)N2[C@H]1C(=O)O [PENICILLIN G] | 26 mm | 18 mm | 14 mm | 12 mm |  |  |  |  |  | 
2 | C=C1[C@H]2O[C@]3([C@@H](C)C(=O)O[C@H]3[C@H]1Cl)[C@@H](OC(C)=O)[C@H]1[C@@]3(CO3)[C@H](OC(=O)CC(C)C)C[C@H](OC(C)=O)[C@]1(C)[C@@H](OC(C)=O)[C@H]2OC(C)=O (relative stereo) |  |  |  |  | < 0.3 µM | < 0.3 µM | 34 mm | inactive | 11 mm | 13 mm
3 | C=C1[C@H](Cl)[C@@H]2OC(=O)[C@H](C)[C@]23O[C@@H]1[C@H](OC(C)=O)[C@H](OC(C)=O)[C@@]1(C)[C@@H](OC(C)=O)CC[C@]2(CO2)[C@@H]1[C@@H]3OC(C)=O [PRAELOLIDE] |  |  |  |  | > 50.1 µM | > 50.1 µM | 18 mm | inactive | 11 mm | 15 mm
4 | CN[C@@H]1[C@H](O[C@H]2[C@H](O[C@H]3[C@H](O)[C@@H](O)[C@H](N=C(N)N)[C@@H](O)[C@@H]3N=C(N)N)O[C@@H](C)[C@]2(O)C=O)O[C@@H](CO)[C@H](O)[C@H]1O [STREPTOMYCIN] | 18 mm | 11 mm | 16 mm | 11 mm |  |  |  |  |  | 
5 | C=C1[C@H](OC(=O)CC(C)C)C[C@H](OC(C)=O)[C@@]2(C)[C@@H](OC(C)=O)[C@@H](OC(=O)CC(C)C)[C@@H](OC(C)=O)[C@]3(CO3)[C@@H]2[C@H](OC(C)=O)[C@]2(O)[C@@H](C)C(=O)O[C@H]2[C@H]1Cl (relative stereo) |  |  |  |  | 19.1 µM | 17.4 µM | 17 mm | inactive | 13 mm | 17 mm
6 | C=C1[C@H](OC(C)=O)C[C@H](OC(C)=O)[C@@]2(C)[C@@H](OC(=O)CC(C)C)C[C@@H](OC(C)=O)[C@]3(CO3)[C@@H]2[C@H](OC(C)=O)[C@]2(O)[C@@H](C)C(=O)O[C@H]2[C@H]1Cl (relative stereo) |  |  |  |  | 18 µM | 15.1 µM | 20 mm | inactive | 9.5 mm | 9.5 mm
7 | C=C1[C@H](OC(C)=O)C[C@H](OC(C)=O)[C@@]2(C)[C@@H](OC(C)=O)C[C@@H](OC(C)=O)[C@]3(CO3)[C@@H]2[C@H](OC(C)=O)[C@]2(O)[C@@H](C)C(=O)O[C@H]2[C@H]1Cl (relative stereo) |  |  |  |  | < 1.5 µM | 20.5 µM | 20 mm | inactive | 11 mm | 13 mm
8 | C=C1[C@H]2O[C@]3([C@@H](C)C(=O)O[C@H]3[C@H]1Cl)[C@@H](OC(C)=O)[C@H]1[C@@]3(CO3)[C@H](OC(C)=O)C[C@H](OC(C)=O)[C@]1(C)[C@@H](OC(C)=O)[C@H]2OC(C)=O (relative stereo) |  |  |  |  | > 45.7 µM | > 45.7 µM | 20 mm | inactive | 15 mm | 12 mm
9 | C=C1CC[C@H](OC(C)=O)[C@@]2(C)[C@@H](OC(C)=O)C[C@@H](OC(=O)CC(C)C)[C@]3(CO3)[C@@H]2[C@H](OC(C)=O)[C@]2(O)[C@@H](C)C(=O)O[C@H]2[C@H]1Cl [JUNCENOLIDE J] |  |  |  |  | > 46.7 µM | > 46.7 µM | 11 mm | inactive | 10 mm | 12 mm
10 | CC(=O)N1CCN(c2ccc(OCC3COC(Cn4ccnc4)(c4ccc(Cl)cc4Cl)O3)cc2)CC1 (stereo unspecified) [KETOCONAZOLE] | 18 mm | 18 mm | 30 mm | 25 mm |  |  |  |  |  | 
11 | COc1cccc2c1C(=O)c1c(O)c3c(c(O)c1C2=O)C[C@@](O)(C(=O)CO)C[C@@H]3O[C@H]1C[C@H](N)[C@H](O)[C@H](C)O1 [DOXORUBICIN] |  |  |  |  |  | 3.2 µM |  |  |  | 
12 | C=C1[C@H](OC(C)=O)C[C@H](OC(C)=O)[C@@]2(C)[C@@H](OC(C)=O)C[C@@H](OC(=O)CC(C)C)[C@]3(CO3)[C@@H]2[C@H](OC(C)=O)[C@]2(O)[C@@H](C)C(=O)O[C@H]2[C@H]1Cl (relative stereo) |  |  |  |  | 16.9 µM | 18 µM | 19 mm | inactive | 14 mm | 14 mm
